Results on 2 molecules are retold here after patent US20090286785A1, “Pyrimidine Derivatives” (Bayer Pharmaceuticals Corporation, priority 2005, published 2009).

Read-outs that look alike come from different tables or passages of the source.

For this test, the system named is HCT116 cells. In words: HCT116 cytotoxic activity assay (Alamar Blue, 72 h). The following applies: Homo sapiens, HCT-116, 72 h.
Where [1] appears, read: read-out: IC50 in the HCT116 cytotoxic activity assay.

Procedure: Human tumor cells, e.g., HCT116 cells, are seeded in a 96-well plate at 3.0×10^3 cells/well and grown in 100 μl of RPMI complete media (Invitrogen Corporation, Grand Island, N.Y.) containing 10% fetal bovine serum (Hyclone, Logan, Utah) and 10 mM HEPES and at 37° C. for 16 h in an incubator with 5% CO2. To each well, 50 μl of additional growth media containing 20 μM to 60 nM concentrations of compound with 0.2% DMSO is added. Cells are grown for another 72 h at 37° C. 20 μl of Alamar Blue (Trek Diagnostic Systems, Inc., Cleveland, Ohio) reagent is added to each well and incubated for 4 h at 37° C. Plates are read in a SpectraMax Gemini (Molecular Devices, CA) with 544 nm excitation and 590 nm emission wavelength. IC50 values are determined by linear regression analysis of log drug concentration versus percent inhibition.

On to `Nc1nc(Nc2ccc(Oc3ccnc(C(F)(F)F)c3)cc2)cc(-c2ccc3[nH]ccc3c2)n1` [Example 12, 6-(1H-indol-5-yl)-N^4-(4-{[2-(trifluoromethyl)pyridin-4-yl]oxy}phenyl)pyrimidine-2,4-diamine], for which the IC50 – broadly, the point on the concentration scale where inhibition reaches its midpoint – under setting [1] is at most 500 nM.
As for `Nc1nc(Nc2ccc(Oc3ccnc(C(F)(F)F)c3)cc2)cc(-c2ccc3[nH]cc(CN4CCOCC4)c3c2)n1` [Example 15, 6-[3-(morpholin-4-ylmethyl)-1H-indol-5-yl]-N^4-(4-{[2-(trifluoromethyl)pyridin-4-yl]oxy}phenyl)pyrimidine-2,4-diamine], the half-inhibitory concentration (IC50) reads like this: under setting [1], above 500 nM; (read-out: IC50 in the HCT116 cytotoxic activity assay (upper bound of bin)) at most 5000 nM.
